Measurements reported in publication PMC7000700, “RyR1-targeted drug discovery pipeline integrating FRET-based high-throughput screening and human myofiber dynamic Ca^2+ assays” (Scientific Reports, 2020).
Blank lines part the entries; values can stand above or below the molecule they belong to.

Assays:
RyR2 [1] = target: T1, RyR2 (Sus scrofa, UniProt A0A5G2R1W3); experiment: F-FKBP binding to RyR2 by co-sedimentation with cardiac SR membranes; set-up: using co-sedimentation with pig skeletal and cardiac SR membranes; from tissue; host or cells: pig cardiac muscle (crude SR membranes); species or system pig; conditions: RyR2, 10 μM Hit, 30 nM Ca2+, 5 mM GSSG or GSH
Method: (§1) The Hit-induced effect on FRET between D-FKBP and A-CaM most likely results from one or the combination of factors, including a shift in CaM and/or FKBP12.6 binding, and/or structure of the RyR complex that shifts the D-A distance. Under the same assay conditions as in the primary screen, we assessed the effect of 10 μM Hit on fluorescent FKBP12.6 (F-FKBP) binding to RyRs, using co-sedimentation with pig skeletal and cardiac SR membranes.
(§2) Supplementary Fig. 3 Effect of HTS Hits on F-FKBP binding to a) RyR1 in skeletal HSR membranes, and b) RyR2
(§3) in cardiac CSR membranes at 30 nM Ca2+ in the presence of 5 mM GSSG or GSH. Results are represented as individual
(§4) data points and means ± SEM, n = 4-5. *P < 0.05 by 2-sided Student’s unpaired t-test. […]

RyR1 [2] = target: T2, RyR1 (Sus scrofa, UniProt P16960); experiment: F-FKBP binding to RyR1 by co-sedimentation with skeletal SR membranes; set-up: using co-sedimentation with pig skeletal and cardiac SR membranes; from tissue; host or cells: pig skeletal muscle (heavy SR membranes); species or system pig; conditions: RyR1, 10 μM Hit, 30 nM Ca2+, 5 mM GSSG or GSH
Method: as §1, §2, §3, §4

RyR2 [3] = target: T1, RyR2; experiment: FLT-FRET between D-FKBP and A-CaM bound to RyR2 in cardiac SR membranes (dose-response); assay type: binding, porcine; set-up: RyR1 in skeletal SR membranes, and RyR2 in cardiac SR membranes; from tissue; host or cells: porcine cardiac left ventricle (crude SR vesicles); conditions: RyR2, cardiac SR, 30 nM Ca2+
Method: (§5) Necessary counter-screens to our pathological RyR1 conditions include evaluating compound effects in healthy conditions and on the cardiac isoform, RyR2. Using the same FRET assay as in HTS, we tested the dose response of key Hits from this screen and the previously HTS-identified RyR1 inhibitor, chloroxine, on healthy (5 mM GSH) and pathological (5 mM GSSG) conditions for both RyR1 in skeletal SR membranes, and RyR2 in cardiac SR membranes.
(§6) Skeletal HSR and cardiac CSR (0.4 mg/ml) membranes were independently pre-incubated with 60 nM D-FKBP, for 90 min, at 37 °C, in a solution containing 150 mM KCl, 5 mM GSH, 0.1 mg/mL BSA, 1 µg/mL Aprotinin/Leupeptin, 1 mM DTT and 20 mM PIPES (pH 7.0). To remove unbound D-FKBP, the SR membranes were spun down at 110,000 × g for 20 min, and then resuspended to 1 mg/mL (skeletal HSR) and 2 mg/mL (cardiac CSR) in binding buffer consisting of 150 mM KCl, 5 mM GSSG, 0.1 mg/mL BSA, 1μg/mL Aprotinin/Leupeptin and 20 mM PIPES, pH 7.0. These samples were then incubated with indicated [A-CaM] for 30 min at 22 °C in binding buffer containing 0.065 mM CaCl2 to give 30 nM free Ca^2+ in the presence of 1 mM EGTA (calculated by MaxChelator). This labeled SR sample was applied to the assay plates in 5 μL aliquots using a Multidrop™ Combi reagent dispenser (Thermo Scientific) with a standard-tube. An additional set of the assay plates were loaded with skeletal HSR or cardiac CSR labeled with only D-FKBP (no added A-CaM).
(§7) FLT measurements were conducted in a top-read FLT-PR designed and built by Fluorescence Innovations, Inc[33]. AF488 donor fluorescence was excited with a 473-nm microchip laser from Concepts Research Corporation (Belgium, WI), and emission was acquired with 490-nm long-pass and 517/20-nm band-pass filters (Semrock, Rochester, NY).
(§8) FLT waveforms for each well were fit based on a one-exponential decay function using least-squares minimization global-analysis software (Fluorescence Innovations, Inc.), as previously described[19],[33]. FRET efficiency (E) was determined as the fractional decrease of donor FLT (τD), due to the presence of acceptor fluorophore (τDA), using the following equation:1 E=1−τDA/τD,

RyR1 [4] = target: T2, RyR1; experiment: FLT-FRET between D-FKBP and A-CaM bound to RyR1 in skeletal SR membranes (HTS and dose-response); assay type: binding, porcine; set-up: RyR1 in skeletal SR membranes, and RyR2 in cardiac SR membranes; from tissue; host or cells: porcine longissimus dorsi muscle (heavy SR vesicles); conditions: for Hit in primary FLT-FRET HTS of LOPAC (FRET altered by > 4 SD vs DMSO): 10 μM compound, 2-hour incubation, 0.3 μM A-CaM, 1536-well; for Hit in primary FLT-FRET HTS of LOPAC (FRET altered by > 4 SD vs DMSO) / IC50: 30 nM Ca2+; for Influence of GSSG vs GSH on the FRET dose-response effect: 5 mM GSSG vs 5 mM GSH; for Influence of GSSG vs GSH on the FRET dose-response effect / Compound concentration at which FRET is abolished: isoform not given (figures show skeletal and cardiac SR); for Compound concentration at which FRET is abolished: FRET dose-response; for IC50: RyR1, skeletal SR; for Effect on FRET: biphasic dose-response, isoform not stated
Method: To confer compatibility with current HTS standards in industrial drug discovery facilities, we miniaturized our screening format from the previously established 384-well plates, requiring 50 μL sample per well[19], to 1536-well plates, requiring 5 μL sample per well. The complete 1280-compound library of pharmacologically active compounds (LOPAC) was applied as 5 nL/well in 40 columns of one 1536-well black-wall/black-bottom plate, with the remaining 8 columns loaded with 5 nL/well of DMSO, as no-drug controls. For each run of the screen, three plates were loaded with either (1) unlabeled HSR, or (2) HSR pre-incubated with donor-FKBP (D-FKBP; donor-only sample), or (3) donor-only sample that was additionally incubated with 0.3 μM acceptor-CaM (A-CaM) for 60 min prior to loading on the plate (donor-acceptor sample). This sub-saturating concentration of A-CaM was used to provide a readout that is sensitive to library compounds that may increase or decrease CaM binding affinity to RyR. To promote a homogenous population of RyR1 resembling that associated with myopathies, final assay conditions also included 30 nM Ca^2+ to represent resting (muscle relaxing) Ca^2+, and 5 mM oxidized glutathione (GSSG), which exaggerates the conditions associated with oxidative stress.
We acquired both FLT waveforms and fluorescence spectra, as previously described[19],[33],[34]. As previously observed, Hit effects were greatest following a 2-hour incubation with the library compounds (Supplementary Fig. 1a). As a result, all FRET results shown in Figs. 1 and 2, and Supplementary Fig. 2 are reported from the 2-hour incubation.
as §5, §6, §7
as §8, with “E=1−τDA/τD, […]” for “E=1−τDA/τD,”

[5] = test system: RyR1 Ca^2+ leak in human skinned skeletal muscle fibers; experiment: t-system Ca2+ readout of RyR1 Ca2+ leak in human mechanically skinned skeletal muscle fibers; conditions: 1 mM
RyR1 [6] = target: T2, RyR1; experiment: [3H]ryanodine binding to skeletal SR vesicles; assay type: biochemical, porcine; set-up: RyR1 in skeletal SR membranes, and RyR2 in cardiac SR membranes; from tissue; host or cells: porcine longissimus dorsi muscle (heavy SR vesicles); conditions: 0-20 μM compound, Supplementary Fig. 5
Method: To evaluate the functional impact of compounds identified through our FRET-based screen, we first used [^3H]ryanodine binding assays. The level of [^3H]ryanodine binding to RyRs in SR membranes is a well-established index of the RyR channel activity. Given the role of CaM binding in our FRET readout, we investigated whether CaM influences the functional effect of the Hit compounds by carrying out [^3H]ryanodine binding assays in the absence and presence of CaM (300 nM).
Crude sarcoplasmic reticulum (CSR) vesicles were isolated from porcine longissimus dorsi muscle and porcine cardiac left ventricle tissue by differential centrifugation of homogenized tissue. HSR vesicles, which are enriched in RyR1, were isolated by fractionation of crude skeletal SR vesicles using a discontinuous sucrose gradient. All vesicles were flash-frozen and stored at −80 °C. Immediately prior to the fluorescence or [^3H]ryanodine binding studies described below, the SR vesicles were stripped of residual endogenous CaM by incubation with a peptide derived from the CaM binding domain of myosin light chain kinase, followed by sedimentation.
In 96-well plates, HSR vesicles (1 mg/ml) and cardiac CSR vesicles (3 mg/mL) were pre-incubated with 0.02% DMSO or Hit compound, with or without 300 nM CaM, for 30 min at 22 °C in a solution containing 150 mM KCl, 5 mM GSSG, 1 µg/mL Aprotinin/Leupeptin, 1 mM EGTA, and 65 µM or 1.02 mM CaCl2 (as determined by MaxChelator to yield 30 nM or 30 μM of free Ca^2+, respectively), 0.1 mg/mL BSA and 20 mM K-PIPES (pH 7.0). Non-specific and maximal [^3H]ryanodine binding to SR were separately assessed by addition of 40 µM non-radioactively labeled ryanodine or 5 mM Adenylyl-imidodiphosphate, respectively. Such control samples were each distributed over 4 wells/plate. Binding of [^3H]ryanodine (10 and 15 nM for cardiac and skeletal SR, respectively) was determined after a 3-h incubation (37 °C) and filtration through grade GF/B Glass Microfiber filters (Brandel Inc., Gaithersburg, MD, US) using a Brandel Harvester. In 4 mL of Ecolite Scintillation cocktail (MP biomedicals, Solon, OH, USA), [^3H] on filter was counted using a Beckman LS6000 scintillation counter (Fullerton, CA).

T2 sequence (P16960 whole entry): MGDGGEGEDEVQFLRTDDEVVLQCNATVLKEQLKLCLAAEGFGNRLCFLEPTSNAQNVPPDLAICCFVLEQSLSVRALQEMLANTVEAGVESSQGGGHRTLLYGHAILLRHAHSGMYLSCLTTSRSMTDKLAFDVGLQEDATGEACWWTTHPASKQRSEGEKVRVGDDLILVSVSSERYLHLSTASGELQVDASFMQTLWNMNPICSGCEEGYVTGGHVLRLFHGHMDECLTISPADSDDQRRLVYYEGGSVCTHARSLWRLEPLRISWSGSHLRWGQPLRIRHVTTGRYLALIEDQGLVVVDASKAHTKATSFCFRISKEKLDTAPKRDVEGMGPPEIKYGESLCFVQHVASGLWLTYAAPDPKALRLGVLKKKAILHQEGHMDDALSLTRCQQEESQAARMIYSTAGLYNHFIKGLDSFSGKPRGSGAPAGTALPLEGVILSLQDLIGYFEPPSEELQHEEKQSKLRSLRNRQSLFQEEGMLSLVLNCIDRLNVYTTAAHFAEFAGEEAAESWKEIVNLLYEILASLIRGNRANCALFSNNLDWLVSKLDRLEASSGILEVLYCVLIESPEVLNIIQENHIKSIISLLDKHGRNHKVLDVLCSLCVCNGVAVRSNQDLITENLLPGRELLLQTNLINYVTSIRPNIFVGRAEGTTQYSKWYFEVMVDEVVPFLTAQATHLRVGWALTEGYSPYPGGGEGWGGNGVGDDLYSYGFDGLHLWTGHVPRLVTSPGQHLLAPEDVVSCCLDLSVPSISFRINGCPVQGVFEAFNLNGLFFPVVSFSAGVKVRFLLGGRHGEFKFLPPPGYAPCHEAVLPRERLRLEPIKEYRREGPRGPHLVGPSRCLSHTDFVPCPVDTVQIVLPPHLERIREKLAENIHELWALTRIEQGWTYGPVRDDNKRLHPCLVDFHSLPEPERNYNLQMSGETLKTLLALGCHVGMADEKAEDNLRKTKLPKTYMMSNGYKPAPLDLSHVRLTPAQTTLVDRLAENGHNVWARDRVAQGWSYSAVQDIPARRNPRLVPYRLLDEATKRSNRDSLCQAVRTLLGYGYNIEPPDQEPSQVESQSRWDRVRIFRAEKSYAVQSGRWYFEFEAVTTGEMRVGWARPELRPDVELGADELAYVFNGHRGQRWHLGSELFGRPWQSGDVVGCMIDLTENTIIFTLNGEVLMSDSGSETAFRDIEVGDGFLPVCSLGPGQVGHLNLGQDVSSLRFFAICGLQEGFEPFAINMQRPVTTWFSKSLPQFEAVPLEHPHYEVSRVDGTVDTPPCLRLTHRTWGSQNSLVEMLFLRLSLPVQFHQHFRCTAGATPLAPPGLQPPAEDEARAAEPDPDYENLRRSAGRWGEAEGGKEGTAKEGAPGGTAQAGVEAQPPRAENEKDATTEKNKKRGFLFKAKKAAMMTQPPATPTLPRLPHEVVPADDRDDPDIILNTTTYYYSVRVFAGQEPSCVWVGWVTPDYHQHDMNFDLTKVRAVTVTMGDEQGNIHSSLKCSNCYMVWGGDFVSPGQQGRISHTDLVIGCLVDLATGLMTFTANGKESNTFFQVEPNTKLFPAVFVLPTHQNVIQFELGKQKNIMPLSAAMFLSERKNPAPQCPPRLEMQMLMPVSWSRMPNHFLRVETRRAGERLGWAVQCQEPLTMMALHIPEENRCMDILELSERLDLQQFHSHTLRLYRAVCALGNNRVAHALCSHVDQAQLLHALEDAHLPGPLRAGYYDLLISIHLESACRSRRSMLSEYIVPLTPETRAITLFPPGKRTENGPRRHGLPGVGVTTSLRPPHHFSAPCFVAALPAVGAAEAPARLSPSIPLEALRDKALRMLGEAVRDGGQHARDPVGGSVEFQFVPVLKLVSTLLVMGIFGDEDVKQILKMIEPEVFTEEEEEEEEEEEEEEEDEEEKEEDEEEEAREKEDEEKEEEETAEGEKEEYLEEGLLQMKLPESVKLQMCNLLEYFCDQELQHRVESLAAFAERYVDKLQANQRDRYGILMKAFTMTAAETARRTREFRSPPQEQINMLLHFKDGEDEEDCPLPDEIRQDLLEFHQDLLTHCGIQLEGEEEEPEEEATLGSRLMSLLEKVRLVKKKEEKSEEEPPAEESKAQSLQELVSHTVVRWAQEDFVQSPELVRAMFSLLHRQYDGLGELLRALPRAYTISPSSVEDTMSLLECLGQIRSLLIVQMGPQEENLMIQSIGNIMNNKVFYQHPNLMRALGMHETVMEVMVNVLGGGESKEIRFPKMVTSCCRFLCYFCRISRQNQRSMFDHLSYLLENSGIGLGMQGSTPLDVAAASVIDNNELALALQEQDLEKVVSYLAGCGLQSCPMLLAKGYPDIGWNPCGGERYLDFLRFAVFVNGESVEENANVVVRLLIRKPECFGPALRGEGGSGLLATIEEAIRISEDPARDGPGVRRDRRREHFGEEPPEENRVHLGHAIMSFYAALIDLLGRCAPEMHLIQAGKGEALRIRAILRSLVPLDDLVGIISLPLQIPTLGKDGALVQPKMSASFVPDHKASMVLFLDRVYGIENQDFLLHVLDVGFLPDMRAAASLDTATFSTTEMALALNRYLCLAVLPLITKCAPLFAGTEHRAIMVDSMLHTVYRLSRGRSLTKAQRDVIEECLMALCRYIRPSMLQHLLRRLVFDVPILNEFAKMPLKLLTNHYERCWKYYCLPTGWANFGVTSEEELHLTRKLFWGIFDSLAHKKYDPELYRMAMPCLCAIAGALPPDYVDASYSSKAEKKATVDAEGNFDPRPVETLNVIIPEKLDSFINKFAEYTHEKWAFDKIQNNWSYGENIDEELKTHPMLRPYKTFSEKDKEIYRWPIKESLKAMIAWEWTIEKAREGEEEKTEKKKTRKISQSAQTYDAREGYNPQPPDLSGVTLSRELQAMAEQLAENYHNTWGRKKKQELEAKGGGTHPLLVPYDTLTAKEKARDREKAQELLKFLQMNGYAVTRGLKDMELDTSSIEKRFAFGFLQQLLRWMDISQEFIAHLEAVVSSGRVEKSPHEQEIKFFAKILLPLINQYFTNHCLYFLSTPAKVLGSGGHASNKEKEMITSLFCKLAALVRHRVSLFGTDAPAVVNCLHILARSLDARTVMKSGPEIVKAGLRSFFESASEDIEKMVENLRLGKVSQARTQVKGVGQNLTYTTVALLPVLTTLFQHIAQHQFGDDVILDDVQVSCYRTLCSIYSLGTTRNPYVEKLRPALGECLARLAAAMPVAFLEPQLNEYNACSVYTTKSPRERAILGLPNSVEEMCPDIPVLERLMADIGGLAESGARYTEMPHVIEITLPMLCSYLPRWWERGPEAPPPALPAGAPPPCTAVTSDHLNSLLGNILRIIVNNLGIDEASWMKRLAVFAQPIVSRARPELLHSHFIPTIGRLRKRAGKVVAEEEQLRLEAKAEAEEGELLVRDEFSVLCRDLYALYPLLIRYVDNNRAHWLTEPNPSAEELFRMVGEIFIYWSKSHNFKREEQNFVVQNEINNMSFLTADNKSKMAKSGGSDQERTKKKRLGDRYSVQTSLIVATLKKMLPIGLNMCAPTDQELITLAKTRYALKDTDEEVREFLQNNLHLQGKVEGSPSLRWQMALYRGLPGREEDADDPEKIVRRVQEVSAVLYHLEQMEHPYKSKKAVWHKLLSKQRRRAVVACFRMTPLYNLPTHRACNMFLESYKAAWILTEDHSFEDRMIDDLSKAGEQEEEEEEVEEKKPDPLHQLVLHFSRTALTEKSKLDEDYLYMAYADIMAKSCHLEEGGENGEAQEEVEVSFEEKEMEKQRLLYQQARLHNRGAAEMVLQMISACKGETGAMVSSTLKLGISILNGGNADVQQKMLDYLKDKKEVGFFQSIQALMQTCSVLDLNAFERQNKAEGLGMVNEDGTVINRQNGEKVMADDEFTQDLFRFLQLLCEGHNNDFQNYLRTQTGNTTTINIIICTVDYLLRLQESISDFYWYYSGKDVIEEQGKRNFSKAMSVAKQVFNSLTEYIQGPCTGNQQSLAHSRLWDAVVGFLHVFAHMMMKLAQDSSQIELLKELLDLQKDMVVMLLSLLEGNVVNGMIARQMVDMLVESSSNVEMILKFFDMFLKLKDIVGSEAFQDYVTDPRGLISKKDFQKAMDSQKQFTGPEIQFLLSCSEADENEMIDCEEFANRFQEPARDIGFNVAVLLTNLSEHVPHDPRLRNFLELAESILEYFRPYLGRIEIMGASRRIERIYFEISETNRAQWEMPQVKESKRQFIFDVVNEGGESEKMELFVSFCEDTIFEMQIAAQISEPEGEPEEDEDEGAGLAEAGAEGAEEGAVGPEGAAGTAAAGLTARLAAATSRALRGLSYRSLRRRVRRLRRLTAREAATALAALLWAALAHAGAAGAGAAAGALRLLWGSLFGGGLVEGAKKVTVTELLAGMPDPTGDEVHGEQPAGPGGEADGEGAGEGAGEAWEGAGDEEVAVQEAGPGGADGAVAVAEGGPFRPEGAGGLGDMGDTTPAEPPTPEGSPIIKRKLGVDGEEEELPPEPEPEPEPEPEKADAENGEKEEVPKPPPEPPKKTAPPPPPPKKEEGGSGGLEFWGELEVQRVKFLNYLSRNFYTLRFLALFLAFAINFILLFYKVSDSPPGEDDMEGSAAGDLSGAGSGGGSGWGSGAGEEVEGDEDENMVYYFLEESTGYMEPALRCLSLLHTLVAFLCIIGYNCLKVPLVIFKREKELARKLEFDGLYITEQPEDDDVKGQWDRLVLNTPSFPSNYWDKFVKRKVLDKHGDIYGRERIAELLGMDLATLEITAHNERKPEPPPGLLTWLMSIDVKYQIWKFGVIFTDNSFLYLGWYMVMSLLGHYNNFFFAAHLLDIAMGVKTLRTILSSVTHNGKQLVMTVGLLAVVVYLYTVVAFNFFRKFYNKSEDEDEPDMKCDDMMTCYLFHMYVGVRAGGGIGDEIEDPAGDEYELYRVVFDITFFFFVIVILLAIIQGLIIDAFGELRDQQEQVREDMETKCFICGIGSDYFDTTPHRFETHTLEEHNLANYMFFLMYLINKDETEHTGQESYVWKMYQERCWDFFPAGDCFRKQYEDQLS

- Decrease of F-FKBP binding (RyR2 [1]): did not alter
- Decrease of F-FKBP binding (RyR1 [2]): did not alter
- IC50 (RyR2 [3]; 5 mM GSH): 2.5 ± 0.3 µM
- IC50 (RyR2 [3]; 5 mM GSSG): 2.4 ± 0.6 µM
- Hit in primary FLT-FRET HTS of LOPAC (FRET altered by > 4 SD vs DMSO) (RyR1 [4]; 5 mM GSSG): identified
- Influence of GSSG vs GSH on the FRET dose-response effect (RyR1 [4]): not altered by GSH or GSSG
- Compound concentration at which FRET is abolished (RyR1 [4]): ≤ 20 µM
- IC50 (RyR1 [4]; 5 mM GSH): 5.9 ± 0.7 µM
- IC50 (RyR1 [4]; 5 mM GSSG): 7.1 ± 0.5 µM
Molecule: Cc1ccc(C(=O)Nc2ccc(S(=O)(=O)O)c3cc(S(=O)(=O)O)cc(S(=O)(=O)O)c23)cc1NC(=O)c1cccc(NC(=O)Nc2cccc(C(=O)Nc3cc(C(=O)Nc4ccc(S(=O)(=O)O)c5cc(S(=O)(=O)O)cc(S(=O)(=O)O)c45)ccc3C)c2)c1 [suramin]

- Decrease of F-FKBP binding (RyR2 [1]): 70%
- Decrease of F-FKBP binding (RyR1 [2]): 20%
Molecule: C=CC[C@@H]1/C=C(\C)C[C@H](C)C[C@H](OC)[C@H]2O[C@@](O)(C(=O)C(=O)N3CCCC[C@H]3C(=O)O[C@H](/C(C)=C/[C@@H]3CC[C@@H](O)[C@H](OC)C3)[C@H](C)[C@@H](O)CC1=O)[C@H](C)C[C@@H]2OC [tacrolimus]

Molecule: N.N.[Cl][Pt][Cl] [cisplatin]
- Hit in primary FLT-FRET HTS of LOPAC (FRET altered by > 4 SD vs DMSO) (RyR1 [4]; 5 mM GSSG): decrease in FRET
- Influence of GSSG vs GSH on the FRET dose-response effect (RyR1 [4]): more strongly decreased FRET in the presence of GSSG vs. GSH

Molecule: O=C(Nc1cccc(C(=O)Nc2ccc(S(=O)(=O)O)c3cc(S(=O)(=O)O)cc(S(=O)(=O)O)c23)c1)Nc1cccc(C(=O)Nc2ccc(S(=O)(=O)O)c3cc(S(=O)(=O)O)cc(S(=O)(=O)O)c23)c1 [NF023]
- Hit in primary FLT-FRET HTS of LOPAC (FRET altered by > 4 SD vs DMSO) (RyR1 [4]; 5 mM GSSG): identified

Molecule: Oc1ccc2ccccc2c1SSc1c(O)ccc2ccccc12 [IPA-3]
- Influence of GSSG vs GSH on the FRET dose-response effect (RyR1 [4]): more strongly decreased FRET in the presence of GSSG vs. GSH

- Hit in primary FLT-FRET HTS of LOPAC (FRET altered by > 4 SD vs DMSO) (RyR1 [4]; 5 mM GSSG): identified
Molecule: CCN(CC)C(=S)SSC(=S)N(CC)CC [disulfiram]
- Influence of GSSG vs GSH on the FRET dose-response effect (RyR1 [4]): more strongly decreased FRET in the presence of GSSG vs. GSH

- Hit in primary FLT-FRET HTS of LOPAC (FRET altered by > 4 SD vs DMSO) (RyR1 [4]; 5 mM GSSG): observe
Molecule: CN=c1nc(-c2ccccc2)n(-c2ccccc2)s1 [SCH-202676]
- Influence of GSSG vs GSH on the FRET dose-response effect (RyR1 [4]): more strongly decreased FRET in the presence of GSSG vs. GSH

Molecule: CCCCNc1ccc(C(=O)OCCN(C)C)cc1 [Tetracaine, tetracaine]
- RyR inhibition (reference level of leak assay) [5]: full RyR inhibition

- Hit in primary FLT-FRET HTS of LOPAC (FRET altered by > 4 SD vs DMSO) (RyR1 [4]; 5 mM GSSG): observe
Molecule: C[C@H](O)[C@H](O)[C@H]1CNc2nc(N)[nH]c(=O)c2N1 [(6 R)-BH4]

- Hit in primary FLT-FRET HTS of LOPAC (FRET altered by > 4 SD vs DMSO) (RyR1 [4]; 5 mM GSSG): observe
Molecule: Reactive Blue

Molecule: O=C(O)C1=CC(=C(c2ccc(O)c(C(=O)O)c2)c2ccc(O)c(C(=O)O)c2)C=CC1=O [aurintricarboxylic acid]
- Hit in primary FLT-FRET HTS of LOPAC (FRET altered by > 4 SD vs DMSO) (RyR1 [4]; 5 mM GSSG): observe
- Compound concentration at which FRET is abolished (RyR1 [4]): ≥ 10 µM
- Effect on [3H]ryanodine binding (RyR1 [6]): potent inhibitor

- Effect on FRET (RyR1 [4]; micromolar [compound]): decreased
- Effect on FRET (RyR1 [4]; sub-micromolar [compound]): increased
- Effect on [3H]ryanodine binding (RyR1 [6]): inhibited
Molecule: Nc1ccc(-c2nc3ccc(-c4nc5ccc(N)cc5[nH]4)cc3[nH]2)cc1 [Ro 90–7501]
- Influence of GSSG vs GSH on the FRET dose-response effect (RyR1 [4]): very similar FRET dose-response effects with GSSG or GSH
